From patent US11827628B2, “Compositions and methods for inhibition of the JAK pathway” (Rigel Pharmaceuticals, Inc., priority 2005, dated 2023)
Where two headings read alike, the source gives them in different places.

Columns and labels:
Primary human T-cells = experiment: Primary Human T-Cell Proliferation Assay Stimulated with IL-2 (CellTiter-Glo); assay type: cell-based; details: read-out: IC50, Example 42
Procedure, shortened: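 Peripheral blood T-cells pre-activated with anti-CD3/anti-CD28 and IL-2 were washed free of IL-2, then cultured with compound plus IL-2 for 72 hours at 37° C, duplicate wells. Viability read as ATP by CellTiter-Glo luminescence; IC50 reported.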

[1] = system: IL-4 stimulated expression of CD23 in human Ramos B cells (JAK-1 and JAK-3); experiment: Assay for Ramos B-Cell Line Stimulated with IL-4 (CD23 upregulation, FACS); assay type: cell-based; details: read-out: IC50, Example 41
Procedure, shortened: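 Read-out is surface CD23 by FACS after anti-CD23-PE staining, giving IC50. Before this, cells were stimulated 20-24 h with 50 units/mL (final) human IL-4, following 1 h compound or vehicle pre-treatment at 37 °C; log-phase Ramos B cells, 5×10^4 per well in 5% serum RPMI.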

[2] = Homo sapiens, T-cell, primary human T-cell proliferation stimulated with IL-2
[3] = Homo sapiens, Ramos, Ramos B-cell line stimulated with IL-4, CD23 expression by FACS
[4] = primary human T-cells stimulated with IL-2, proliferation
[5] = Ramos B cells stimulated with IL-4, CD23 expression by FACS
[6] = Homo sapiens, T-cell, primary human T-cells stimulated with IL-2, proliferation
[7] = Homo sapiens, Ramos, Ramos B cells stimulated with IL-4, CD23 expression by FACS

Question: Which results are given for `Cc1ccc(Nc2ncc(F)c(Nc3ccc(CCOC(N)=O)cc3)n2)cc1S(N)(=O)=O` [III-53, N4-{4-[2-(Aminocarbonyloxy)ethyl]phenyl}-N2-(3-aminosulfonyl-4-methylphenyl)-5-fluoro-2,4-pyrimidinediamine]?
Answer: IC50 (Primary human T-cells; [2]): 286 nM; IC50 [1, 3]: 97.7 nM

Question: Which results are given for `Cc1cc(Nc2nc(Nc3ccc(C)c(S(N)(=O)=O)c3)ncc2F)ccc1CCC#N` [III-19, N2-(3-Aminosulfonyl-4-methylphenyl)-N4-[4-(2-cyanoethyl)-3-methylphenyl]-5-fluoro-2,4-pyrimidinediamine]?
Answer: IC50 (Primary human T-cells; [2]): 174 nM; IC50 [1, 3]: 72.3 nM

Question: With `COc1ccc(Nc2ncc(F)c(Nc3ccc(OCC#N)cc3)n2)cc1S(N)(=O)=O` [Compound I-56, N2-(3-Aminosulfonyl-4-methoxyphenyl)-N4-(4-cyanomethoxyphenyl)-5-fluoro-2,4-pyrimidinediamine] as the molecule, how does the IC50 (Primary human T-cells; [2]) read?
Answer: The IC50 was 262 nM.

Question: And the IC50 [1, 3]?
Answer: Its IC50 is 104 nM.

Question: What does the source list for `CN(C)C(=O)COc1ccc(Nc2nc(Nc3ccc(S(N)(=O)=O)cc3)ncc2F)cc1Cl` [Compound I-131, N2-(4-Aminosulfonylphenyl)-N4-(3-chloro-4-dimethylaminocarbonylmethoxyphenyl)-5-fluoro-2,4-pyrimidinediamine]?
Answer: IC50 (Primary human T-cells; [2]): 3780 nM; IC50 [1, 3]: 262 nM

Question: With `Cc1cc(Nc2nc(Nc3cccc(S(N)(=O)=O)c3)ncc2F)ccc1CCC#N` [III-20, N2-(3-Aminosulfonylphenyl)-N4-[4-(2-cyanoethyl)-3-methylphenyl]-5-fluoro-2,4-pyrimidinediamine] as the molecule, how does the IC50 (Primary human T-cells; [2]) read?
Answer: The IC50 was 763 nM.

Question: And the IC50 [1, 3]?
Answer: The IC50 was 43 nM.

Question: What does the source list for `COc1cc(Nc2nc(Nc3ccc(C)c(S(N)(=O)=O)c3)ncc2F)ccc1OCC#N` [Compound I-47, N2-(3-Aminosulfonyl-4-methylphenyl)-N4-(4-cyanomethoxy-3-methoxyphenyl)-5-fluoro-2,4-pyrimidinediamine]?
Answer: IC50 (Primary human T-cells; [2]): 551 nM; IC50 [1, 3]: 120 nM

Question: What does the source list for `NC(=O)COc1ccc(Nc2nc(Nc3ccc(S(N)(=O)=O)cc3)ncc2F)cc1Cl` [Compound I-97, N4-(4-Aminocarbonylmethoxy-3-chlorophenyl)-N2-(4-aminosulfonylphenyl)-5-fluoro-2,4-pyrimidinediamine]?
Answer: IC50 (Primary human T-cells; [2]): 869 nM; IC50 [1, 3]: 212 nM

Question: Which results are given for `COc1ccc(Nc2nc(Nc3cccc(S(=O)(=O)NN4CCC(C)CC4)c3)ncc2F)cc1Cl` [VI-9, N4-(3-Chloro-4-methoxyphenyl)-5-fluoro-N2-[3-(4-methylpipendin-1-yl)aminosulfonylphenyl]-2,4-pyrimidinediamine]?
Answer: IC50 (Primary human T-cells; [4]): 945 nM; IC50 [1, 5]: 53.3 nM

Question: Which IC50 (Primary human T-cells; [2]) does the source give for `Cc1ccc(Nc2ncc(C)c(Nc3ccc(OCC(=O)N(C)C)c(Cl)c3)n2)cc1S(N)(=O)=O` [Compound I-136, N2-(3-Aminosulfonyl-4-methylphenyl)-N4-(3-chloro-4-dimethylaminocarbonylmethoxyphenyl)-5-methyl-2,4-pyrimidinediamine] here?
Answer: The IC50 was 196 nM.

Question: What about the IC50 [1, 3] of the same molecule?
Answer: Its IC50 is 132 nM.

Question: `Cc1cnc(Nc2cccc(S(N)(=O)=O)c2)nc1Nc1ccc(OCC#N)cc1` [Compound I-58, N2-(3-Aminosulfonylphenyl)-N4-(4-cyanomethoxyphenyl)-5-methyl-2,4-pyrimidinediamine] was tested. Which IC50 (Primary human T-cells; [2]) did it give?
Answer: The IC50 was 19.2 nM.

Question: What about the IC50 [1, 3] of the same molecule?
Answer: The IC50 was 5.05 nM.

Question: Which IC50 (Primary human T-cells; [2]) does the source give for `N#CCCc1ccc(Nc2nc(Nc3cccc(S(N)(=O)=O)c3)ncc2F)cc1F` [III-18, N2-(3-Aminosulfonylphenyl)-N4-[4-(2-cyanoethyl)-3-fluorophenyl]-5-fluoro-2,4-pyrimidinediamine] here?
Answer: Its IC50 is 136 nM.

Question: And the IC50 [1, 3]?
Answer: Its IC50 is 36.6 nM.

Question: For `NC(=O)OCCc1ccc(Nc2nc(Nc3cccc(S(N)(=O)=O)c3)ncc2F)cc1` [III-54, N4-{4-[2-(Aminocarbonyloxy)ethyl]phenyl}-N2-(3-aminosulfonylphenyl)-5-fluoro-2,4-pyrimidinediamine], which IC50 (Primary human T-cells; [2]) is on record?
Answer: The IC50 was 140 nM.

Question: And the IC50 [1, 3]?
Answer: Its IC50 is 135 nM.

Question: Which results are given for `CNS(=O)(=O)c1cc(Nc2ncc(F)c(Nc3cccc(-c4cnco4)c3)n2)ccc1C` [IV-4, 5-Fluoro-N2-[3-(N-methylaminosulfony)-4-methylphenyl]-N4-[3-(1,3-oxazol-5-yl)phenyl]-2,4-pyrimidinediamine]?
Answer: IC50 (Primary human T-cells; [4]): 303 nM; IC50 [1, 5]: 151 nM

Question: Which IC50 (Primary human T-cells; [2]) does the source give for `CN(C)C(=O)OCCc1ccc(Nc2nc(Nc3cccc(S(N)(=O)=O)c3)ncc2F)cc1` [III-57, N2-(3-Aminosulfonylphenyl)-N4-{4-[2-(dimethylaminocarbonyloxy)ethyl]phenyl}-5-fluoro-2,4-pyrimidinediamine] here?
Answer: The IC50 was 170 nM.

Question: What about the IC50 [1, 3] of the same molecule?
Answer: The IC50 was 53.6 nM.

Question: How did the IC50 (Primary human T-cells; [2]) turn out when `Cc1cnc(Nc2ccc(S(N)(=O)=O)cc2)nc1Nc1ccc(OCC(=O)N(C)C)c(F)c1` [Compound I-137, N2-(4-Aminosulfonylphenyl)-N4-(4-dimethylaminocarbonylmethoxy-3-fluorophenyl)-5-methyl-2,4-pyrimidinediamine] was run?
Answer: The IC50 was 1100 nM.

Question: And the IC50 [1, 3]?
Answer: Its IC50 is 387 nM.

Question: How did the IC50 (Primary human T-cells; [4]) turn out when `NS(=O)(=O)c1cccc(Nc2ncc(F)c(Nc3ccc(CN4CCS(=O)(=O)CC4)cc3)n2)c1` [III-110, N2-(3-Aminosulfonylphenyl)-5-fluoro-N4-{4-[(1,1-dioxothiomorpholin-4-yl-)methyl]phenyl}-2,4-pyrimidinediamine] was run?
Answer: The IC50 was 998 nM.

Question: What about the IC50 [1, 5] of the same molecule?
Answer: Its IC50 is 247 nM.

Question: With `COc1ccc(Nc2ncc(F)c(Nc3ccc(CN4CCSCC4)cc3)n2)cc1S(N)(=O)=O` [III-109, N2-(3-Aminosulfonyl-4-methyoxyphenyl)-5-fluoro-N4-(4-thiomorpholinomethylenephenyl)-2,4-pyrimidinediamine] as the molecule, how does the IC50 (Primary human T-cells; [4]) read?
Answer: Its IC50 is 252 nM.

Question: And the IC50 [1, 5]?
Answer: Its IC50 is 143 nM.

Question: Which IC50 (Primary human T-cells; [2]) does the source give for `CNC(=O)COc1ccc(Nc2nc(Nc3ccc(C)c(S(N)(=O)=O)c3)ncc2C)cc1F` [Compound I-156, N2-(3-Aminosulfonyl-4-methylphenyl)-N4-(3-fluoro-4-methylaminocarbonylmethoxyphenyl)-5-methyl-2,4-pyrimidinediamine] here?
Answer: The IC50 was 142 nM.

Question: What about the IC50 [1, 3] of the same molecule?
Answer: Its IC50 is 65.5 nM.

Question: Which results are given for `N#CCCc1ccc(Nc2nc(Nc3cccc(S(N)(=O)=O)c3)ncc2F)cc1Cl` [III-22, N2-(3-Aminosulfonylphenyl)-N4-[3-chloro-4-(2-cyanoethyl)phenyl]-5-fluoro-2,4-pyrimidinediamine]?
Answer: IC50 (Primary human T-cells; [2]): 76.1 nM; IC50 [1, 3]: 45.4 nM

Question: Which IC50 (Primary human T-cells; [4]) does the source give for “N4-(3,4-Dichlorophenyl)-5-fluoro-N2-[3-(4-methylpipendin-1-yl)aminosulfonylphenyl]-2,4-pyrimidinediamine [VI-10]” here?
Answer: The IC50 was 2400 nM.

Question: And the IC50 [1, 5]?
Answer: The IC50 was 220 nM.

Question: With `Cc1cc2ccc(CNc3nc(Nc4cccc(S(N)(=O)=O)c4)ncc3F)cc2[nH]1` [Compound X-3] as the molecule, how does the IC50 (Primary human T-cells; [6]) read?
Answer: Its IC50 is 1090 nM.

Question: And the IC50 [1, 7]?
Answer: The IC50 was 348 nM.

Question: With `Cc1ccc(Nc2ncc(F)c(Nc3cccc(OC4CCN(C)CC4)c3)n2)cc1S(N)(=O)=O` [II-2, N2-(3-Aminosulfonyl-4-methylphenyl)-5-fluoro-N4-{3-[(1-methylpiperidin-4-yl)oxy]phenyl}-2,4-pyrimidinediamine] as the molecule, how does the IC50 (Primary human T-cells; [2]) read?
Answer: Its IC50 is 1520 nM.

Question: And the IC50 [1, 3]?
Answer: The IC50 was 244 nM.

Question: With `Cc1ccc(Nc2ncc(F)c(Nc3ccc(OC4CCN(C)CC4)c(C(F)(F)F)c3)n2)cc1S(N)(=O)=O` [II-6, N2-(3-Aminosulfonyl-4-methylphenyl)-5-fluoro-N4-{4-[(1-methylpiperidin-4-yl)oxy]-3-trifluoromethylphenyl}-2,4-pyrimidinediamine] as the molecule, how does the IC50 (Primary human T-cells; [2]) read?
Answer: The IC50 was 1220 nM.

Question: What about the IC50 [1, 3] of the same molecule?
Answer: The IC50 was 111 nM.

Question: How did the IC50 (Primary human T-cells; [2]) turn out when `N#CCOc1ccc(Nc2nc(Nc3ccc(S(N)(=O)=O)cc3)ncc2F)cc1-c1ccn(CC#N)n1` [Compound I-52, N2-(4-Aminosulfonylphenyl)-N4-[4-cyanomethoxy-3-(1-cyanomethylpyrazol-3-yl)phenyl]-5-fluoro-2,4-pyrimidinediamine] was run?
Answer: The IC50 was 5300 nM.

Question: And the IC50 [1, 3]?
Answer: Its IC50 is 152 nM.

Question: With `Cc1ccc(Nc2ncc(F)c(Nc3ccc(OCc4cccnc4)cc3)n2)cc1S(N)(=O)=O` [Compound I-178, N2-(3-Aminosulfonyl-4-methylphenyl)-5-fluoro-N4-[4-(3-pyridylmethoxy)phenyl]-2,4-pyrimidinediamine] as the molecule, how does the IC50 (Primary human T-cells; [2]) read?
Answer: Its IC50 is 29.3 nM.

Question: And the IC50 [1, 3]?
Answer: The IC50 was 23.5 nM.

Question: For `Cc1ccc(Nc2ncc(C)c(Nc3ccc(OCC(N)=O)cc3)n2)cc1S(N)(=O)=O` [Compound I-110, N4-(4-Aminocarbonylmethoxyphenyl)-N2-(3-aminosulfonyl-4-methylphenyl)-5-methyl-2,4-pyrimidinediamine], which IC50 (Primary human T-cells; [2]) is on record?
Answer: Its IC50 is 253 nM.

Question: And the IC50 [1, 3]?
Answer: Its IC50 is 358 nM.

Question: What does the source list for `Cc1ccc(Nc2nc(Nc3cccc(S(N)(=O)=O)c3)ncc2F)cc1OCCN1CCOCC1` [Compound I-203, N2-(3-Aminosulfonylphenyl)-5-fluoro-N4-[4-methyl-3-(2-morpholinoethyloxy)phenyl]-2,4-pyrimidinediamine]?
Answer: IC50 (Primary human T-cells; [2]): 684 nM; IC50 [1, 3]: 265 nM

Question: Which IC50 (Primary human T-cells; [2]) does the source give for `NS(=O)(=O)c1cccc(Nc2ncc(F)c(NCCc3ccc(-c4ccncc4)cc3)n2)c1` [III-76, N2-(3-Aminosulfonylphenyl)-5-fluoro-N4-[4-(4-pyridinyl)phenethyl]-2,4-pyrimidinediamine] here?
Answer: Its IC50 is 135 nM.

Question: What about the IC50 [1, 3] of the same molecule?
Answer: Its IC50 is 104 nM.

Question: `Cc1ccc(Nc2nc(Nc3ccc(C)c(S(N)(=O)=O)c3)ncc2F)cc1OCCN1CCOCC1` [Compound I-204, N2-(3-Aminosulfonyl-4-methylphenyl)-5-fluoro-N4-[4-methyl-3-(2-morpholinoethyloxy)phenyl]2,4-pyrimidinediamine] was tested. Which IC50 (Primary human T-cells; [2]) did it give?
Answer: Its IC50 is 1650 nM.

Question: And the IC50 [1, 3]?
Answer: Its IC50 is 256 nM.

Question: How did the IC50 (Primary human T-cells; [6]) turn out when `Cc1cc(Nc2nc(Nc3ccc(S(N)(=O)=O)cc3)ncc2F)cc(C)c1N1CCN(C)CC1` [IX-44, N2-(4-Aminosulfonylphenyl)-N4-[3,5-dimethyl-4-(4-methylpiperazin-1-yl]phenyl)-5-fluoro-2,4-pyrimidinediamine] was run?
Answer: The IC50 was 789 nM.

Question: And the IC50 [1, 7]?
Answer: Its IC50 is 223 nM.

Question: With `Cc1cnc(Nc2ccc(Cl)c(S(N)(=O)=O)c2)nc1Nc1ccc(OCC(=O)N(C)C)c(Cl)c1` [Compound I-141, N2-(3-Aminosulfonyl-4-chlorophenyl)-N4-(3-chloro-4-dimethylaminocarbonylmethoxyphenyl)-5-methyl-2,4-pyrimidinediamine] as the molecule, how does the IC50 (Primary human T-cells; [2]) read?
Answer: Its IC50 is 669 nM.

Question: And the IC50 [1, 3]?
Answer: Its IC50 is 162 nM.
